Source: PubChem BioAssay (NCI)
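Interpolation was linear, between the two tested concentrations surrounding the appropriate level; five concentrations were tested over 48 hours in 96-well plates. Definition used: TGI = concentration required for complete inhibition of growth.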

Key:
Assay in all cases: NCI anticancer screen, dose series, 48 h
786-0 renal = test system: 786-0 renal
A498 renal = test system: A498 renal
A549 NSCLC = test system: A549 NSCLC
ACHN renal = test system: ACHN renal
BT-549 breast = test system: BT-549 breast
CAKI-1 renal = test system: CAKI-1 renal
COLO 205 colon = test system: COLO 205 colon
DU-145 prostate = test system: DU-145 prostate
HCC-2998 colon = test system: HCC-2998 colon
HCT-116 colon = test system: HCT-116 colon
HCT-15 colon = test system: HCT-15 colon
HL-60(TB) leukemia = test system: HL-60(TB) leukemia
HOP-62 NSCLC = test system: HOP-62 NSCLC
HOP-92 NSCLC = test system: HOP-92 NSCLC
HS 578T breast = test system: HS 578T breast
HT29 colon = test system: HT29 colon
IGROV1 ovarian = test system: IGROV1 ovarian
KM12 colon = test system: KM12 colon
LOX IMVI melanoma = test system: LOX IMVI melanoma
M14 melanoma = test system: M14 melanoma
MALME-3M melanoma = test system: MALME-3M melanoma
MCF7 breast = test system: MCF7 breast
MDA-MB-231 breast = test system: MDA-MB-231 breast
MDA-MB-435 = test system: MDA-MB-435
MDA-N = test system: MDA-N
MOLT-4 leukemia = test system: MOLT-4 leukemia
NCI-H226 lung = test system: NCI-H226 lung
NCI-H23 lung = test system: NCI-H23 lung
NCI-H460 lung = test system: NCI-H460 lung
NCI-H522 lung = test system: NCI-H522 lung
NCI/ADR-RES ovarian = test system: NCI/ADR-RES ovarian
OVCAR-3 ovarian = test system: OVCAR-3 ovarian
OVCAR-4 ovarian = test system: OVCAR-4 ovarian
OVCAR-5 ovarian = test system: OVCAR-5 ovarian
OVCAR-8 ovarian = test system: OVCAR-8 ovarian
PC-3 prostate = test system: PC-3 prostate
RPMI-8226 leukemia = test system: RPMI-8226 leukemia
RXF 393 renal = test system: RXF 393 renal
SF-268 CNS = test system: SF-268 CNS
SF-295 CNS = test system: SF-295 CNS
SF-539 CNS = test system: SF-539 CNS
SK-MEL-2 melanoma = test system: SK-MEL-2 melanoma
SK-MEL-28 melanoma = test system: SK-MEL-28 melanoma
SK-MEL-5 melanoma = test system: SK-MEL-5 melanoma
SK-OV-3 ovarian = test system: SK-OV-3 ovarian
SN12C renal = test system: SN12C renal
SNB-19 CNS = test system: SNB-19 CNS
SNB-75 CNS = test system: SNB-75 CNS
SR leukemia = test system: SR leukemia
SW-620 colon = test system: SW-620 colon
T-47D breast = test system: T-47D breast
TK-10 renal = test system: TK-10 renal
U251 CNS = test system: U251 CNS
UACC-257 melanoma = test system: UACC-257 melanoma
UACC-62 melanoma = test system: UACC-62 melanoma
UO-31 renal = test system: UO-31 renal
CCRF-CEM leukemia = test system: CCRF-CEM leukemia
EKVX NSCLC = test system: EKVX NSCLC
K-562 leukemia = test system: K-562 leukemia

Measured: TGI

Fc1ccc2c(c1)nc1n2C(c2c(Cl)cccc2Cl)SC1 (stereo not drawn)
29 µM: OVCAR-8 ovarian
25.9 µM: SNB-75 CNS
26.8 µM: SF-295 CNS
52.5 µM: MOLT-4 leukemia
35.4 µM: A498 renal
27.1 µM: IGROV1 ovarian | SNB-19 CNS
25.8 µM: KM12 colon | U251 CNS
34.7 µM: HS 578T breast
29.6 µM: SF-268 CNS
26.2 µM: NCI-H23 lung | UACC-62 melanoma
24.4 µM: HCT-15 colon
38.4 µM: T-47D breast
28.2 µM: A549 NSCLC | LOX IMVI melanoma
29.9 µM: HCC-2998 colon | M14 melanoma
32.2 µM: MCF7 breast
31 µM: SN12C renal
30.6 µM: DU-145 prostate
25.6 µM: MALME-3M melanoma
27.7 µM: NCI/ADR-RES ovarian
28.9 µM: OVCAR-5 ovarian
> 100 µM: SR leukemia
32.9 µM: COLO 205 colon
31.6 µM: TK-10 renal
29.7 µM: OVCAR-4 ovarian | SK-MEL-2 melanoma
26 µM: OVCAR-3 ovarian
29.5 µM: 786-0 renal | HT29 colon
30.5 µM: BT-549 breast | MDA-MB-231 breast
20.8 µM: NCI-H460 lung
62.3 µM: HL-60(TB) leukemia
21.1 µM: SK-MEL-5 melanoma
34.8 µM: SF-539 CNS
34.3 µM: UACC-257 melanoma
20 µM: HOP-92 NSCLC
28.7 µM: NCI-H522 lung | UO-31 renal
25 µM: CAKI-1 renal | MDA-MB-435
87.7 µM: RPMI-8226 leukemia
30.7 µM: ACHN renal
37.7 µM: NCI-H226 lung
28.3 µM: PC-3 prostate | SK-OV-3 ovarian
24.5 µM: MDA-N
27.6 µM: SW-620 colon
31.9 µM: RXF 393 renal
29.2 µM: HOP-62 NSCLC
24.3 µM: SK-MEL-28 melanoma
18.3 µM: HCT-116 colon

CC(=O)N(C(C)=O)c1ncc(-n2nc(-c3ccccc3)cc2-c2ccccc2)c(-c2ccccc2)n1
9.42 µM: MDA-N
not listed: UO-31 renal
> 10 µM: all other assays above

CC(=O)Nc1sc(Br)cc1S(=O)(=O)c1ccc(Cl)cc1
44.2 µM: HCC-2998 colon
43.1 µM: PC-3 prostate
92.3 µM: 786-0 renal
40.6 µM: SF-539 CNS
68.7 µM: OVCAR-8 ovarian
83.1 µM: UO-31 renal
38 µM: M14 melanoma
56.3 µM: HS 578T breast
47.3 µM: MCF7 breast
63.4 µM: HL-60(TB) leukemia
30.8 µM: HT29 colon
90.5 µM: A549 NSCLC
48.4 µM: RXF 393 renal
47.2 µM: OVCAR-3 ovarian
88.6 µM: SNB-75 CNS
64.5 µM: OVCAR-4 ovarian
45.4 µM: KM12 colon
50.5 µM: SR leukemia
57.1 µM: NCI-H226 lung
68.5 µM: T-47D breast
78.3 µM: K-562 leukemia
52.3 µM: NCI/ADR-RES ovarian
74.8 µM: BT-549 breast
59.5 µM: HOP-92 NSCLC
47.6 µM: NCI-H522 lung
not listed: COLO 205 colon | HCT-15 colon | HOP-62 NSCLC | LOX IMVI melanoma | SK-MEL-5 melanoma
> 100 µM: all other assays above

Cc1ccc2c(c1)C(=S)N1CSCC1c1nncn1-2 (stereo not drawn)
not listed: HL-60(TB) leukemia | HOP-92 NSCLC | NCI-H23 lung | SF-539 CNS
> 100 µM: all other assays above
